This is an account of results in ChEMBL document CHEMBL5365552, “Tryptamines and Mental Health: Activating the 5-HT Receptor for Therapeutic Potential” (ACS Med Chem Lett, 2023).

What all share (assay type): ADME, organism-based
Data set [1] can be described thus: Prodrug conversion in rat assessed as 4-OH-DiPT formation by measuring Cmax at 2 mg/kg, iv measured for 15 to 360 mins by LCMS analysis. Also noted: time upper 360 min, dose 2 mg/kg, time lower 15 min, route iv. Particulars: in vivo.
Data set [2] can be described thus: Prodrug conversion in rat assessed as 4-OH-DiPT formation by measuring Cmax at 2 mg/kg, sc measured for 15 to 360 mins by LCMS analysis. More on the design: time upper 360 min, time lower 15 min, dose 2 mg/kg, route sc. To be noted: in vivo.
Data set [3] in a line: Prodrug conversion in rat assessed as 4-OH-DiPT formation by measuring Tmax at 2 mg/kg, sc measured for 15 to 360 mins by LCMS analysis. To be noted: in vivo, time 15-360 min.
Data set [4] in a line: Prodrug conversion in rat assessed as 4-OH-DiPT formation by measuring AUC at 2 mg/kg, iv measured for 15 to 360 mins by LCMS analysis. Also noted: dose 2 mg/kg, time 15-360 min, route iv. To be noted: in vivo.
Data set [5] is described as follows: Prodrug conversion in rat assessed as 4-OH-DiPT formation by measuring AUC at 2 mg/kg, sc measured for 15 to 360 mins by LCMS analysis. More on the design: dose 2 mg/kg, time upper 360 min, time lower 15 min, route sc. To be noted: in vivo.
Data set [6] is described as follows: Prodrug conversion in rat assessed as 4-OH-DiPT formation by measuring bioavailability at 2 mg/kg, sc measured for 15 to 360 mins by LCMS analysis. To be noted: in vivo, time 15-360 min.

Structures are written as SMILES.

In the case of `CC(C)N(CCc1c[nH]c2cccc(OC(=O)CCCC(=O)O)c12)C(C)C`, the Cmax in data set [1] amounted to 458 ng/mL; in data set [2], 103 ng/mL. Further, the Tmax in data set [3] was determined as 36.6 min. Moreover, the AUC in data set [4] came to 152 ng·h/mL; in data set [5], 134 ng·h/mL. Besides, in data set [6], the F is listed as 89%.
